Patent US8247401B2, “P2X3 receptor antagonists for treatment of pain” (Merck Sharp & Dohme Corp., priority 2007, dated 2012)

Target: T1, human P2X3 (Homo sapiens, UniProt P56373)
T1 construct: expressed in transfected cells
T1 sequence (P56373 1-397): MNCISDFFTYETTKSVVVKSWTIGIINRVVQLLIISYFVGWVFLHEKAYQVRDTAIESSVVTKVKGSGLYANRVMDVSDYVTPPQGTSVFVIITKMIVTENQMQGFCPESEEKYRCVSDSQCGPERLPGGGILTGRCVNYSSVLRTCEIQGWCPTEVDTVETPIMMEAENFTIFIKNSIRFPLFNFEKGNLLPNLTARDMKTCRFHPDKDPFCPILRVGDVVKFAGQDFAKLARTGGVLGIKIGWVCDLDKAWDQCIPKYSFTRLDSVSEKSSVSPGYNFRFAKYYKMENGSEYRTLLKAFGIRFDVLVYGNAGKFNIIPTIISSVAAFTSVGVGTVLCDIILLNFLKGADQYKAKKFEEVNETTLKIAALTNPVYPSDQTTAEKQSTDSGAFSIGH
Assay: Intracellular Calcium Measurement to Assess Antagonist Affinity (FLIPR, Fluo-4)
Format: cell-based
Settings: Intracellular Calcium Measurement assay; agonist α,β-meATP at EC50
Description: Generation of a Human P2X3 and P2X2/3 Stable Cell Line—Human P2X3 receptor cDNA (Accession number NM_002559) was subcloned as a 5′XhoI and 3′HindIII fragment into the expression vector pcDNA5/FRT (Invitrogen). Human P2X2 receptor cDNA (Accession number NM_174873) was subcloned as a 5′EcoRI and 3′NotI fragment into the expression vector pIRESneo2 (BD Biosciences Clontech). The human P2X3 expression construct was transfected using Lipofectamine 2000 (Invitrogen) into Flp-in—293 cells (Invitrogen) according to the manufacturer's directions. Cells positive for flp-mediated recombination of […] P2X3 were selected using 150 μg/ml hygromycin. The stable human P2X3 cell line was co-transfected with the human P2X2 expression construct using Lipofectamine 2000 as above and co-transfected cells selected using […] hygromycin and 1 mg/ml G418. The stable P2X3 cell line was propagated in DMEM, 10% FBS, 100 μg/ml hygromycin, and 100 units/ml penicillin and 100 μg/ml streptomycin, and maintained at 37° and 95% humidity. The stable P2X2/3 cell line was propagated as above with the addition of 500 μg/ml G418.
Intracellular Calcium Measurement to Assess Antagonist Affinity—A fluorescent imaging plate reader (FLIPR; Molecular Devices) was used to monitor intracellular calcium levels using the calcium-chelating dye Fluo-4 (Molecular Probes). The excitation and emission wavelengths used to monitor fluorescence were 488 nm and 530 nm, respectively. Cells expressing either human P2X3 or human P2X2/3 were plated at a density of 20,000 cells/well (20 μl/well) in 384-well black-walled plates approximately 20 hours before beginning the assay. On the day of the assay 20 μl of loading buffer (Hank's balanced salt solution, 2.5 mM CaCl2, 20 mM HEPES, 0.1% BSA, 2.5 mM probenecid, TR-40, Fluo-4, and 138 mM NMDG substituted for NaCl) is added and cells dye-loaded for 60 min in the dark at room temperature. Ten minutes prior to adding agonist, the antagonist was added in a volume of 10 μl and allowed to incubate at room temperature. During this period fluorescence data is collected at 3 sec intervals followed by 10 sec intervals. The agonist, α,β-meATP, is added at a 6× concentration ([α,β-meATP]final=EC50). Following agonist addition fluorescence was measured at 5 sec intervals and analyzed based on the increase in peak relative fluorescence units (RFU) compared to the basal fluorescence. Peak fluorescence was used to determine the inhibitory effect at each concentration of antagonist by the following equation: % Inhibition=100*(1−((RFU(drug)−RFU(control))/(RFU(DMSO only)−RFU(control)))) In vitro Electrophysiological Assay—Cells expressing human P2X3 receptors were grown to a confluence of 65-85% 20 to 32 hours prior to assay. […]

IC50 | SMILES
0.02 µM | Cc1ccc(-c2cc(C(=O)NC(C)c3nnc[nH]3)cc(N3CCOCC3)c2)c(F)c1 (stereo in doubt) [Example 4.109, 2′-Fluoro-4′-methyl-5-morpholin-4-yl-N-[(1R)-1-(1H-1,2,4-triazol-3-yl)ethyl]biphenyl-3-carboxamide]
0.011 µM | Cc1ccc(-c2cc(C(=O)N[C@H](C)c3ncc(F)cc3F)cc(-c3nnc(C4CC4)n3C)c2)nc1 [Example 4.3]
0.008 µM | Cc1ccc(-c2cc(C(=O)N[C@H](C)c3ccc(F)cn3)cc(-c3ncccc3F)c2)nc1 [Example 4.252, 3-(3-Fluoropyridin-2-yl)-N-[(1R)-1-(5-fluoropyridin-2-yl)ethyl]-5-(5-methylpyridin-2-yl)benzamide]
0.026 µM | C[C@@H](NC(=O)c1cc(-c2ccc(Cl)cn2)cc(C(C)(C)O)c1)c1ccc(C(F)(F)F)[n+]([O-])c1 [Example 4.539, 3-(5-Chloropyridin-2-yl)-5-(1-hydroxy-1-methylethyl)-N-{(1R)-1-[1-oxido-6-(trifluoromethyl)pyridin-3-yl]-ethyl}benzamide]
